Values quoted from earlier work, collected in patent US6455580B1, “Method and composition for antiviral therapy” (F&S Group, Inc., priority 1994, dated 2002).

Assays:
[1] = animal studies; oleuropein itself or as component of plant tissue extracts
[2] = not given; remark: listed apart in the source

Compound | hypoglycemic and cardiovascular effects [1] | antiviral properties in vitro | antiviral activity in vivo [2]
C/C=C1/[C@H](O[C@@H]2O[C@H](CO)[C@@H](O)[C@H](O)[C@H]2O)OC=C(C(=O)OC)[C@H]1CC(=O)OCCc1ccc(O)c(O)c1 [oleuropein] | exhibit both hypoglycemic and cardiovascular effects | – | –
COC(=O)C1=CO[C@@H](C)[C@@H](C=O)C1CC(=O)O (single isomer, unassigned; (-)) [(−)-elenolic acid] | – | antiviral properties in vitro | little, if any, activity in vivo
